What was measured:
Sprague-Dawley rats = experiment: In-life observations, 28-day repeated dose oral toxicity study; type: in vivo, Rattus norvegicus
Text: The experimental protocol followed the OECD 407 Guideline on Repeated dose 28-day oral toxicity study in rodents, which was enhanced for detection of endocrine, neurotoxicity, retinoid, bone and DNA damage endpoints. In order to improve the assessment of dose-response relationships the number of rats per gender per dose group was reduced to 5 and the amount of dose groups was increased to 8. To rapidly achieve the kinetic steady state, the total dose was divided into 6 daily loading doses and 3 weekly maintenance doses, which were calculated according to the formula [21]. [drawing 1] where [drawing 2] = loading dose
Loading doses were administered on days 0–5 and maintenance doses on days 10, 17 and 24 of the study. Selection of the highest dose was based on a pilot study.
Food and water consumption per cage was recorded once weekly. For determination of the stage of the estrous cycle vaginal smears were collected from female rats daily starting from day 23 of the study. This was done to ensure that the females were at the diestrous stage during necropsy.

human TTR = target: T1, human TTR (Homo sapiens, UniProt P02766); conditions: ref Hamers et al. 2011, cited from earlier work
T1 construct: purchased Sigma Aldrich

Compound: Clc1cc(Cl)c(-c2cc(Cl)c(Cl)c(Cl)c2Cl)cc1Cl [PCB 180, 2,2′,3′,4,4′,5,5′-heptachlorobiphenyl]
- Body weight development (Sprague-Dawley rats; 1700 mg/kg bw, both genders, during loading dosing, recovered completely by end of study): retarded
- Feed consumption, maximal temporary reduction (Sprague-Dawley rats; females, three highest doses, during loading dosing): about 20%
- Feed consumption, maximal temporary reduction (Sprague-Dawley rats; males, two highest doses, during loading dosing): about 25%
- Water consumption (Sprague-Dawley rats; rat, in vivo): unaffected
- Mortality (Sprague-Dawley rats; total doses 3-1700 mg/kg bw, both genders): no mortality
- T4 displacement, Pilot experiment (human TTR; @10000 nM): 27% T4 displacement @10000 nM
- IC50 (human TTR; TTR binding): > 15 µM

From article PMC4138103 (PLoS ONE, 2014)
